Experimental findings from US20250163104A1, “MACROCYCLIC IMMUNOMODULATORS” (priority 2021, published 2025) are described below.

Where a SMILES comes first, the peptide text is derived from it. Bridges are numbered along the chain shown (N, C = ends). [ ]: non-standard residue; d: D form. The star is where a group is joined. ξ: configuration not given here. Phe(4-CONH2) = NC(=O)c1ccc(C[C@H](N)C(=O)O)cc1; Phe(4-COOH) = N[C@@H](Cc1ccc(C(=O)O)cc1)C(=O)O; Bip = N[C@@H](Cc1ccc(-c2ccccc2)cc1)C(=O)O; Phe(3-Cl) = N[C@@H](Cc1cccc(Cl)c1)C(=O)O; Phe(3-Me) = Cc1cccc(C[C@H](N)C(=O)O)c1; Phe(4-F) = N[C@@H](Cc1ccc(F)cc1)C(=O)O; Val(3-OH) = CC(C)(O)[C@H](N)C(=O)O; 4Pal = N[C@@H](Cc1ccncc1)C(=O)O; Cha = N[C@@H](CC1CCCCC1)C(=O)O; Thr(3ξ) = CC(O)[C@H](N)C(=O)O; Carboxymethyl = O=C(O)C*; Orn = NCCC[C@H](N)C(=O)O; Dab = NCC[C@H](N)C(=O)O; Abu = CC[C@H](N)C(=O)O; Dap = NC[C@H](N)C(=O)O; Propargyl = C#CC*

This experiment has as its target T1, human PD-1 / PD-L1-Ig binding on Jurkat cell line over-expressing human PD-1 (Jurkat-PD-1) (Homo sapiens, UniProt Q15116).
T1 construct: expressed in transfected cells; host or cells: Jurkat
Description: Jurkat-PD-1 Cell Binding High-Content Screening Assay (CBA). Format: cell-based. As to conditions: Jurkat-PD-1 cells, PE-labeled PD-L1-Ig 20 nM final; read-out: Jurkat HPD1_PDL1 IC50. In short, it runs like this: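 Jurkat-hPD-1 cells in DMEM with 10% fetal calf serum receive test compound and are held at 37° C for 2 h. PE-labeled PD-L1-Ig is added at 20 nM final and left for 1 hour. Cells are then fixed and Hoechst-stained, and binding is measured by imaging.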

T1 sequence (Q15116 25-288): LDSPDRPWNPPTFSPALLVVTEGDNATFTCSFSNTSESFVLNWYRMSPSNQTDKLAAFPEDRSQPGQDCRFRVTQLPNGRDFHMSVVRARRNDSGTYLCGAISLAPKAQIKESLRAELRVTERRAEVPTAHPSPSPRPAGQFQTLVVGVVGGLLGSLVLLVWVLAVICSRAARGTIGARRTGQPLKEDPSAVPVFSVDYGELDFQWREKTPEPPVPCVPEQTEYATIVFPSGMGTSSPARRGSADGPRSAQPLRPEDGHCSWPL

As for `C#CCOc1ccc(C[C@@H]2NC(=O)[C@H](Cc3cccc(C)c3)NC(=O)[C@H](CC(=O)O)NC(=O)[C@H](Cc3ccc(OCC(=O)O)cc3)NC(=O)[C@H](CC)NC(=O)CSC[C@@H](C(=O)N[C@@H](CCN)C(N)=O)NC(=O)[C@H](CCC(=O)O)NC(=O)[C@H](C(C)C)NC(=O)[C@H](CC3CCCCC3)NC(=O)[C@H](CCN)NC(=O)[C@@H](CC(C)C)NC(=O)[C@H](CCCN)NC(=O)[C@H](Cc3ccc(OCC(=O)O)cc3)NC(=O)[C@H](Cc3ccc(-c4ccccc4)cc3)NC2=O)cc1` [Compound 1840] ({CH2CO}-[Abu]Y(Carboxymethyl)D[Phe(3-Me)]Y(Propargyl)[Bip]Y(Carboxymethyl)[Orn][dL][Dab][Cha]VEC[Dab]-NH2; thioether N-14), the IC50 (usually the concentration that gives 50% inhibition) came out at 3.4 nM. Consider `CC[C@H](C)[C@@H]1NC(=O)[C@H](Cc2ccc(-c3ccccc3)cc2)NC(=O)[C@H](C(C)C)NC(=O)[C@H](Cc2c[nH]c3ccccc23)NC(=O)[C@H](CC(=O)O)NC(=O)[C@H](Cc2ccc(O)cc2)NC(=O)[C@H](CC(N)=O)NC(=O)CSC[C@@H](C(=O)NCC(N)=O)NC(=O)[C@H]([C@@H](C)O)NC(=O)[C@H](C(C)C)NC(=O)[C@H](CC(C)C)NC(=O)[C@H](CCN)NC(=O)[C@@H](CC(C)C)NC(=O)[C@H](CCCN)NC1=O` [Compound 1124] ({CH2CO}-NYDWV[Bip]I[Orn][dL][Dab]LVTCG-NH2; thioether N-14), for which the IC50 is 24.3 nM. The value for `CC(C)C[C@H]1NC(=O)[C@H](CCCN)NC(=O)[C@H](CCC(=O)O)NC(=O)[C@H](Cc2ccc(-c3ccccc3)cc2)NC(=O)[C@H](C(C)C)NC(=O)[C@H](Cc2c[nH]c3ccccc23)NC(=O)[C@H](CC(=O)O)NC(=O)[C@H](Cc2ccc(OCC(=O)O)cc2)NC(=O)[C@H](CN)NC(=O)CSC[C@@H](C(=O)N[C@@H](C)C(N)=O)NC(=O)[C@H]([C@@H](C)O)NC(=O)[C@H](C(C)C)NC(=O)[C@H](CC2CCCCC2)NC(=O)[C@H](CCC(=O)O)NC1=O` [Compound 1515] ({CH2CO}-[Dap]Y(Carboxymethyl)DWV[Bip]E[Orn][dL]E[Cha]VTCA-NH2; thioether N-14) was 28.8 nM. `CC(C)C[C@H]1NC(=O)[C@H](CCCN)NC(=O)[C@H](CCCNC(N)=O)NC(=O)[C@H](Cc2ccc(-c3ccccc3)cc2)NC(=O)[C@H](C(C)C)NC(=O)[C@H](Cc2c[nH]c3ccccc23)NC(=O)[C@H](CC(=O)O)NC(=O)[C@H](Cc2cccs2)NC(=O)[C@H](CN)NC(=O)CSC[C@@H](C(=O)N[C@@H](C)C(N)=O)NC(=O)[C@H]([C@@H](C)O)NC(=O)[C@H](C(C)C)NC(=O)[C@H](CC2CCCCC2)NC(=O)[C@H](CCN)NC1=O` [Compound 2128]: the IC50 worked out at 7.5 nM. For `CC(C)C[C@@H]1NC(=O)[C@H](Cc2c[nH]c3ccccc23)NC(=O)[C@H](CC(=O)O)NC(=O)[C@H](Cc2ccncc2)NC(=O)[C@H](CN)NC(=O)CSC[C@@H](C(=O)NCC(N)=O)NC(=O)[C@H](CO)NC(=O)[C@H](C(C)C)NC(=O)[C@H](CC(C)C)NC(=O)[C@H](CC(N)=O)NC(=O)[C@@H](CC(C)C)NC(=O)[C@H](CCCN)NC(=O)[C@H](C(C)C)NC(=O)[C@H](Cc2ccc(-c3ccccc3)cc2)NC1=O` [Compound 1285] ({CH2CO}-[Dap][4Pal]DWL[Bip]V[Orn][dL]NLVSCG-NH2; thioether N-14), the IC50 came to 42.6 nM. With `CCC(C)[C@@H]1NC(=O)[C@H](Cc2ccc(-c3ccccc3)cc2)NC(=O)[C@H](C(C)C)NC(=O)[C@H](Cc2cccc(C)c2)NC(=O)[C@H](CC(=O)O)NC(=O)[C@H](Cc2ccc(C(=O)O)cc2)NC(=O)[C@H](CCCNC(=N)N)NC(=O)CSC[C@@H](C(=O)N[C@@H](C)C(N)=O)NC(=O)[C@H](C(C)O)NC(=O)[C@H](C(C)C)NC(=O)[C@H](CC2CCCCC2)NC(=O)[C@H](CCN)NC(=O)[C@@H](CC(C)C)NC(=O)[C@H](CCCN)NC1=O` (stereo partly drawn) [Compound 2538], the half-inhibitory concentration (IC50) turned out to be 9.7 nM. For the compound `CC(C)C[C@H]1NC(=O)[C@H](CCCN)NC(=O)[C@H](CCC(=O)O)NC(=O)[C@H](Cc2ccc(-c3ccccc3)cc2)NC(=O)[C@H](C(C)C)NC(=O)[C@H](Cc2cccc(Cl)c2)NC(=O)[C@H](CC(=O)O)NC(=O)[C@H](Cc2ccncc2)NC(=O)[C@H](CN)NC(=O)CSC[C@@H](C(=O)N[C@@H](C)C(N)=O)NC(=O)[C@H]([C@@H](C)O)NC(=O)[C@H](C(C)C)NC(=O)[C@H](CC2CCCCC2)NC(=O)[C@H](CCN)NC1=O` [Compound 1496] ({CH2CO}-[Dap][4Pal]D[Phe(3-Cl)]V[Bip]E[Orn][dL][Dab][Cha]VTCA-NH2; thioether N-14), the IC50 was found to be 17.9 nM.

In the case of `CC(C)C[C@H]1NC(=O)[C@H](CCCN)NC(=O)[C@H](C(C)C)NC(=O)[C@H](Cc2ccc(-c3ccccc3)cc2)NC(=O)[C@H](C(C)C)NC(=O)[C@H](Cc2c[nH]c3ccccc23)NC(=O)[C@H](CC(=O)O)NC(=O)[C@H](Cc2ccc(O)cc2)NC(=O)[C@H](CC#N)NC(=O)CSC[C@@H](C(=O)N[C@@H](C)C(N)=O)NC(=O)[C@H](C(C)O)NC(=O)[C@H](C(C)C)NC(=O)[C@H](CC2CCCCC2)NC(=O)[C@H](CCN)NC1=O` (stereo partly drawn) [Compound 2526], the IC50 came out at 54.8 nM. On to `Cc1cccc(C[C@@H]2NC(=O)[C@H](CC(=O)O)NC(=O)[C@H](Cc3ccc(OCC(=O)O)cc3)NC(=O)[C@H](Cc3ccc(C(N)=O)cc3)NC(=O)CSC[C@@H](C(=O)N[C@@H](CCN)C(N)=O)NC(=O)[C@H](CCC(N)=O)NC(=O)[C@H](C(C)(C)O)NC(=O)[C@H](CC3CCCCC3)NC(=O)[C@H](CCN)NC(=O)[C@@H](CC(C)C)NC(=O)[C@H](CCCN)NC(=O)[C@H](Cc3ccc(OCC(=O)O)cc3)NC(=O)[C@H](Cc3ccc(-c4ccccc4)cc3)NC(=O)[C@H](Cc3ccc(OCC(=O)O)cc3)NC2=O)c1` [Compound 2069] ({CH2CO}-[Phe(4-CONH2)]Y(Carboxymethyl)D[Phe(3-Me)]Y(Carboxymethyl)[Bip]Y(Carboxymethyl)[Orn][dL][Dab][Cha][Val(3-OH)]QC[Dab]-NH2; thioether N-14), for which the IC50 turned out to be 7.2 nM. In the case of `CC(C)C[C@@H]1NC(=O)[C@H](Cc2c[nH]c3ccccc23)NC(=O)[C@H](CC(=O)O)NC(=O)[C@H](Cc2ccc(O)cc2)NC(=O)[C@H](Cc2ccccc2)NC(=O)CSC[C@@H](C(=O)NCC(N)=O)NC(=O)[C@H](CO)NC(=O)[C@H](C(C)C)NC(=O)[C@H](CC(C)C)NC(=O)[C@H](CC(N)=O)NC(=O)[C@@H](CC(C)C)NC(=O)[C@H](CCN)NC(=O)[C@H](C(C)C)NC(=O)[C@H](Cc2ccc(-c3ccccc3)cc2)NC1=O` [Compound 1059] ({CH2CO}-FYDWL[Bip]V[Dab][dL]NLVSCG-NH2; thioether N-14), the IC50 is 28.5 nM.

`CC(C)C[C@@H]1NC(=O)[C@H](Cc2c[nH]c3ccccc23)NC(=O)[C@H](CC(=O)O)NC(=O)[C@H](Cc2ccc(O)cc2)NC(=O)[C@H](Cc2ccccc2)NC(=O)CSC[C@@H](C(=O)NCC(N)=O)NC(=O)[C@H](CO)NC(=O)[C@H](C(C)C)NC(=O)[C@H](CC(C)C)NC(=O)[C@H](CCN)NC(=O)[C@@H](CC(C)C)NC(=O)[C@H](CCCN)NC(=O)[C@H](C(C)C)NC(=O)[C@H](Cc2ccc(-c3ccccc3)cc2)NC1=O` [Compound 1073] ({CH2CO}-FYDWL[Bip]V[Orn][dL][Dab]LVSCG-NH2; thioether N-14): the IC50 was 10 nM.

As to `Cc1cccc(C[C@@H]2NC(=O)[C@H](CC(=O)O)NC(=O)[C@H](Cc3ccc(F)cc3)NC(=O)[C@H](C(C)O)NC(=O)CSC[C@@H](C(=O)N[C@@H](CCN)C(N)=O)NC(=O)[C@H](C(C)O)NC(=O)[C@H](C(C)(C)O)NC(=O)[C@H](CC3CCCCC3)NC(=O)[C@H](CCN)NC(=O)[C@@H](CC(C)C)NC(=O)[C@H](CCCN)NC(=O)[C@H](Cc3ccc(C(=O)O)cc3)NC(=O)[C@H](Cc3ccc(-c4ccccc4)cc3)NC(=O)[C@H](Cc3ccc(C(=O)O)cc3)NC2=O)c1` (stereo partly drawn) [Compound 2685] ({CH2CO}-[Thr(3ξ)][Phe(4-F)]D[Phe(3-Me)][Phe(4-COOH)][Bip][Phe(4-COOH)][Orn][dL][Dab][Cha][Val(3-OH)][Thr(3ξ)]C[Dab]-NH2; thioether N-14), the IC50 amounted to 6 nM. `Cc1cccc(C[C@@H]2NC(=O)[C@H](CC(=O)O)NC(=O)[C@H](Cc3ccc(OCC(=O)O)cc3)NC(=O)[C@H](CN)NC(=O)CSC[C@@H](C(=O)N[C@@H](C)C(N)=O)NC(=O)[C@H]([C@@H](C)O)NC(=O)[C@H](C(C)C)NC(=O)[C@H](CC3CCCCC3)NC(=O)[C@H](CCN)NC(=O)[C@@H](CC(C)C)NC(=O)[C@H](CCCN)NC(=O)[C@H](CN)NC(=O)[C@H](Cc3ccc(-c4ccccc4)cc3)NC(=O)[C@H](C(C)C)NC2=O)c1` [Compound 1310] ({CH2CO}-[Dap]Y(Carboxymethyl)D[Phe(3-Me)]V[Bip][Dap][Orn][dL][Dab][Cha]VTCA-NH2; thioether N-14): the IC50 is 12 nM.

As to `Cc1cccc(C[C@@H]2NC(=O)[C@H](CC(=O)O)NC(=O)[C@H](Cc3ccc(OCC(=O)O)cc3)NC(=O)[C@H](CCN)NC(=O)CSC[C@@H](C(=O)N[C@@H](CCN)C(N)=O)NC(=O)[C@H](Cc3cnc[nH]3)NC(=O)[C@H](C(C)C)NC(=O)[C@H](CC3CCCCC3)NC(=O)[C@H](CCN)NC(=O)[C@@H](CC(C)C)NC(=O)[C@H](CCCN)NC(=O)[C@H](Cc3ccc(OCC(=O)O)cc3)NC(=O)[C@H](Cc3ccc(-c4ccccc4)cc3)NC(=O)[C@H](C(C)C)NC2=O)c1` [Compound 2644] ({CH2CO}-[Dab]Y(Carboxymethyl)D[Phe(3-Me)]V[Bip]Y(Carboxymethyl)[Orn][dL][Dab][Cha]VHC[Dab]-NH2; thioether N-14), the IC50 came out at 13.6 nM.

`C#CCOc1ccc(C[C@@H]2NC(=O)[C@H](CCN)NC(=O)CSC[C@@H](C(=O)N[C@@H](CCN)C(N)=O)NC(=O)[C@H](CCC(=O)O)NC(=O)[C@H](C(C)C)NC(=O)[C@H](CC3CCCCC3)NC(=O)[C@H](CCN)NC(=O)[C@@H](CC(C)C)NC(=O)[C@H](CCCN)NC(=O)[C@H](Cc3ccc(OCC(=O)O)cc3)NC(=O)[C@H](Cc3ccc(-c4ccccc4)cc3)NC(=O)[C@H](Cc3ccc(OCC(=O)O)cc3)NC(=O)[C@H](Cc3cccc(C)c3)NC(=O)[C@H](CC(=O)O)NC2=O)cc1` [Compound 1820] ({CH2CO}-[Dab]Y(Propargyl)D[Phe(3-Me)]Y(Carboxymethyl)[Bip]Y(Carboxymethyl)[Orn][dL][Dab][Cha]VEC[Dab]-NH2; thioether N-14): the IC50 worked out at 17.2 nM.
